In US10995068B2, “Synthetic sphingolipid-like molecules, drugs, methods of their synthesis and methods of treatment” (The Regents of the University of California, priority 2015, dated 2021):
Entries after “also recorded” stand apart in the source; their conditions may differ.

Columns and labels:
[1] = system: murine hematopoietic cell line FL5.12; assay: Viability of FL5.12 cells by vital dye exclusion; assay type: cell-based; conditions: FL5.12 cells, 48 h, vital dye exclusion; n ≥3
Procedure: Cell culture studies: FL5.12 cells (murine hematopoetic cells originally obtained from Craig Thompson, Memorial Sloan Kettering Cancer Center) were maintained at 0.1-0.5 million/ml in RPMI 1640 (Mediatech) supplemented with 10% fetal calf serum (FCS, Sigma-Aldrich), 10 mM Hepes (Mediatech), 500 pg/ml recombinant IL-3 (cat #575502, Biolegend), 55 μM β-mercaptoethanol (Sigma-Aldrich), 2 mM L-glutamine (Mediatech), and antibiotics. Cells were screened for Mycoplasma every 3 months using the Look-Out Mycoplasma PCR Detection kit (cat #MP0035, Sigma).
IC50 values were calculated using GraphPad Prism (GraphPad Software, Inc, La Jolla, Calif.).

[2] = system: FL5.12 cells; assay: Vacuolation assay; assay type: cell-based, murine; set-up: key to Vacuolation score: 0-100 score: (3×%cat3+2×%cat2+1×%cat1)/3; cells graded 0-3 for vacuoles; conditions: FL5.12 cells
Procedure: In an exemplified study, nutrient transporter down-regulation was monitored by quantifying surface levels of the amino acid transporter-associated protein, CD98, by flow cytometry. Vacuolation was scored in a range from 0 to […], as determined by a vacuolation assay described in greater detail in the Materials and Methods section below.
Vacuolation assay: Cells were evaluated at 100× using brightfield microscopy and a Nikon TE2000-S fluorescence microscope equipped with DIC filters. Vacuolation was quantified after a 3 h incubation period in 2.5 μM compound except where otherwise indicated. To calculate a vacuolation score, vacuolation severity in at least 15 individual cells/experiment was assessed qualitatively. Scores were assigned to individual cells as follows: 0=no vacuoles, 1=very small vacuoles, 2=multiple well-defined vacuoles, 3=multiple large vacuoles. To calculate the vacuolation score associated with a compound, the following formula was used: vacuolation score=[(3×% cells in category 3)+(2×% cells in category 2)+(1×% cells in category 1)]/3.
The score is divided by 3 so that a compound with 100% of its cells in category 3 would have a vacuolation score of 100. Three independent experiments were conducted and the vacuolation scores averaged to generate a mean+/−SEM. All cells were scored by one lab member after confirming that a blinded individual scored 5 compounds with similar results.

[3] = system: PP2A; assay: PP2A phosphatase activity; assay type: biochemical, murine; conditions: PP2A immunoprecipitated from FL5.12 cell lysates, phosphopeptide dephosphorylation
Text: Furthermore, many embodiments of the invention are directed to azacyclic constrained sphingolipid-like molecules inducing internalization of nutrient transporters via a mechanism that activates PP2A. […] Thus, activation of PP2A is very peculiar to certain sphingolipid structures. Activation of PP2A by FTY720 and SH-BC-893 also stimulated vacuolation, and as the PP2A inhibitors calyculin A and SV40 small t antigen, each blocked this effect (FIG. 59C). Of note, YM201636-induced vacuolation was unaffected by PP2A inhibition (FIG. 60B). In addition, inhibiting PP2A restored PIKfyve to the proper location within vacuoles in cells treated with FTY720 or SH-BC-893 (FIG. 57D).
PP2A phosphatase activity. PP2A activity was measured using a PP2A immunoprecipitation phosphatase assay kit (EMD Millipore). Briefly, the catalytic subunit of PP2A was immunoprecipitated from FL5.12 cell lysates with 4 μg anti-PP2A, C subunit. After four washes, the activity of immunoprecipitated PP2A was assessed by dephosphorylation of the phosphopeptide according to the manufacturer's instructions in the presence or absence of C2-ceramide, dihydro-C2-ceramide, FTY720, SH-BC-893, or calyculinA.

With CCCCCCCCCCCCCCC[C@@H](O)[C@H](CO)NC(C)=O [Compound 110, dihydro-C2-ceramide, reference compound] the “IC50 (μM) [95% CI]” value [1] was “failed to kill cells; also recorded: Cytostatic”, the Vacuolation score ([2]; 3 h in 2.5 μM compound except where otherwise indicated, mean ± SEM, n ≥3) was 0 and the “vacuolation (in words)” value ([2]; at any dose / highest dose tested) was “caused no vacuolation”. For the same molecule, the PP2A activation [3] was “does not activate PP2A”.
